Source: US6281214A, “Biphenyl derivatives” (Eisai Co., Ltd, priority 1994, dated 2001)
Like-named read-outs stand apart in the source and are kept apart here.

Columns and labels:
Parameters in all cases: species or system SD rats
serotonin S2 receptor = target: T1, serotonin S2 receptor (Rattus norvegicus, UniProt P14842); assay: serotonin S2 receptor binding test ([3H] Ketanserin Binding Test); conditions: 1 nM [3H] Ketanserin, rat cortex, 37° C., 15 minutes
T1 construct: The receptor fraction prepared from the cortex was molten and suspended; from tissue; host or cells: cerebral cortex of SD rats (membrane fraction)
How it was run: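 Ki values came from probit IC50s corrected for radioligand concentration and Kd (Scatchard). Binding used 1 nM [3H]ketanserin with SD rat cortex membrane fractions, 15 min at 37 °C in Tris-HCl pH 7.4. Bound radioactivity was measured after GF/B filtration, with methysergide for nonspecific binding.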

dopamine D2 receptor = target: T2, dopamine D2 receptor (Rattus norvegicus, UniProt P61169); assay: dopamine D2 receptor binding test ([3H] Spiperone Binding Test); conditions: 1 nM [3H] Spiperone, rat corpus striatum, room temperature, 60 minutes
T2 construct: the receptor fraction prepared from the corpus striatum was molten and suspended; from tissue; host or cells: corpus striatum of SD rats (membrane fraction)
How it was run: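 Rat (SD, 6–8 weeks) corpus striatum membranes in 50 mM Krebs-Tris pH 7.4 were incubated with 1 nM [3H]spiperone at room temperature for 60 minutes, with nonspecific binding defined by excess spiperone. IC50 came from probit analysis; Ki was derived using radioligand concentration and Scatchard Kd.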

adrenergic α1 receptor = adrenergic α1 receptor binding test ([3H] Prazosin Binding Test); conditions: 1 nM [3H] Prazosin, rat cortex, room temperature, 60 minutes
How it was run: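 Rat (SD, 6-8 weeks) cerebral cortex membranes in 50 mM Tris-HCl pH 7.4 incubated with 1 nM [3H]prazosin for 60 min at room temperature; nonspecific binding defined with phentolamine. IC50 by probit method, converted to Ki using radioligand concentration and Scatchard-derived Kd.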

[1] = read-out: Ki value, dopamine D2 receptor

T1 sequence (P14842 whole entry): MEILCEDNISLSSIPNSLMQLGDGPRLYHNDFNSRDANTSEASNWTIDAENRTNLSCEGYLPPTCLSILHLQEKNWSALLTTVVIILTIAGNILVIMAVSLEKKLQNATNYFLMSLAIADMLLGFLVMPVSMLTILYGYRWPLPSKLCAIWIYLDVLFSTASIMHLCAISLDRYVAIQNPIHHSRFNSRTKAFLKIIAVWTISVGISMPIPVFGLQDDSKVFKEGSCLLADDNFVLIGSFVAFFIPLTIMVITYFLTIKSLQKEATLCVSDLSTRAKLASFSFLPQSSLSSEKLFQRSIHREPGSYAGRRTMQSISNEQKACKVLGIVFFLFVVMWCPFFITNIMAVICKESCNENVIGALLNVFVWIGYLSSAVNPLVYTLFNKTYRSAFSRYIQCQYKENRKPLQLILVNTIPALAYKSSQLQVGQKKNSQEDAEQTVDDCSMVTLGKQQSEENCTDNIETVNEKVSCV
T2 sequence (P61169 whole entry): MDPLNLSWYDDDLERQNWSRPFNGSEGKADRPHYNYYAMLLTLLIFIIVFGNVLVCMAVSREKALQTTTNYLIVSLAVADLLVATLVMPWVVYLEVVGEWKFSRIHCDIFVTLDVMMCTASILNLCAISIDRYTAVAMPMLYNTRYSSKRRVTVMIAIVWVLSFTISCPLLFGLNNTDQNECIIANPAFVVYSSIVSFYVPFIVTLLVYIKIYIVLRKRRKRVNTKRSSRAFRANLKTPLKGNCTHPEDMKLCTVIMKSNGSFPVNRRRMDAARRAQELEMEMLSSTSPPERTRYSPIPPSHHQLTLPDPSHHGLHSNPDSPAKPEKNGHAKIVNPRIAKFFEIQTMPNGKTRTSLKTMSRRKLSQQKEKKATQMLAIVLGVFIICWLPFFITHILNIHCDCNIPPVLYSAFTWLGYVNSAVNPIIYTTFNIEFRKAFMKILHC

Structure (SMILES)	Ki (serotonin S2 receptor)	Ki (dopamine D2 receptor; Ki value, dopamine D2 receptor)	Ki (adrenergic α1 receptor)	Ki (dopamine D2 receptor; [1])
CCN1CCN(c2cc(C=O)c(OC)c(-c3ccccc3)c2)CC1 [Example 106, 1-Ethyl-4-(3-phenyl-4-methoxy-5-formyl)phenylpiperazine]	0.38 µM	0.044 µM	> 1 µM	–
CCN1CCN(c2cc(-c3ccccc3)c(OC)c(C3OCCCO3)c2)CC1 [Example 107, 1-Ethyl-4-[3-phenyl-4-methoxy-5-(1,3-dioxan-2yl)]phenylpiperazine]	> 1 µM	–	> 1 µM	0.429 µM
CCN1CCN(c2cc(-c3ccccc3C)c(Cl)c(C(F)F)c2)CC1 [Example 185, 1-Ethyl-4-[3-(2-tolyl)-4-chloro-5-difluoromethyl]phenylpiperazine]	> 0.1 µM	–	> 1 µM	0.00058 µM
CCCS(=O)(=O)NCc1cc(N2CCN(CC)CC2)cc(-c2ccccc2C)c1Cl [Example 192, 1-Ethyl-4-[3-(2-tolyl)-4-chloro-5-propanesulfonylaminomethyl]phenylpiperazine]	0.374 µM	–	0.55 µM	> 0.1 µM
CCCS(=O)(=O)c1cc(N2CCN(CC)CC2)cc(-c2ccccc2)c1Cl [Example 191]	0.00376 µM	–	0.0212 µM	0.00165 µM
CCN1CCN(c2cc(N)c(OC)c(-c3ccccc3)c2)CC1 [Example 110, 1-Ethyl-4-(3-phenyl-4-methoxy-5-amino)phenylpiperazine]	> 1 µM	–	> 1 µM	> 1 µM
CCN1CCN(c2cc(-c3ccccc3C)c(Cl)c(S(C)(=O)=O)c2)CC1 [Example 158, 1-Ethyl-4-[3-(2-tolyl)-4-chloro-5-methanesulfonyl]phenylpiperazine]	0.124 µM	–	> 1 µM	0.0124 µM
CC(C)S(=O)(=O)Nc1cc(N2CCN(C)CC2)cc(-c2ccccc2Cl)c1Cl [Example 182, 1-Methyl-4-(3-(2-chlorophenyl)-4-chloro-5-isopropylsulfonylamino]phenylpiperazine]	0.145 µM	–	0.186 µM	0.00234 µM
CCc1cc(N2CCN(CC)CC2)cc(-c2ccccc2)c1OC [Example 70]	0.128 µM	0.0419 µM	0.322 µM	–
CCS(=O)(=O)Nc1cc(N2CCN(C)CC2)cc(-c2ccccc2Cl)c1Cl [Example 34, 1-Methyl-4-[3-(2-chlorophenyl)-4-chloro-5-ethanesulfonylamino]phenylpiperazine]	0.00777 µM	–	0.0258 µM	0.00037 µM
CC[C@H](F)c1cc(N2CCN(CCO)CC2)cc(-c2ccc(F)cc2C)c1Cl [Example 222]	0.012 µM	–	1.04 µM	0.0065 µM
CCS(=O)(=O)c1cc(N2CCN(CCc3ccccn3)CC2)cc(-c2ccc(F)cc2)c1OC [Example 198, 1-[2-(2-Pyridyl)ethyl]-4-[3-(4-fluorophenyl)-4-methoxy-5-ethanesulfonyl]phenylpiperazine]	0.00106 µM	–	0.0627 µM	0.0121 µM
CCN1CCN(c2cc(-c3ccccc3C)c(Cl)c(C3SCCCS3)c2)CC1 [Example 190, 1-Ethyl-4-[3-(2-tolyl)-4-chloro-5-(1,3-dithian-2-yl)phenylpiperazinepropanedithio]phenylpiperazine]	0.0185 µM	–	> 1 µM	0.0404 µM
CCC(F)c1cc(N2CCN(C)CC2)cc(-c2ccccc2)c1Cl (stereo not drawn) [Example 206]	0.00429 µM	0.00106 µM	0.0478 µM	–
CCN1CCN(c2cc(-c3ccccc3)c(OC)c(S(N)(=O)=O)c2)CC1 [Example 124, 1-Ethyl-4-(3-phenyl-4-methoxy-5-aminosulfonyl)phenylpiperazine]	> 1 µM	–	> 1 µM	0.0992 µM
CCN1CCN(c2cc(-c3ccccc3)c(OC)c(C3CCCO3)c2)CC1 (stereo not drawn) [Example 95, 1-Ethyl-4-[3-phenyl-4-methoxy-5-(2-tetrahydrofuranyl)]phenylpiperazine]	0.0409 µM	–	0.279 µM	0.104 µM
CCN1CCN(c2cc(-c3ccccc3)c(OC)c(-c3ccco3)c2)CC1 [Example 90]	0.685 µM	–	> 1 µM	0.263 µM
CCN1CCN(c2cc(C(Cc3ccc(F)cc3)=NO)c(OC)c(-c3ccccc3)c2)CC1 [Example 98, 1-Ethyl-4-{3-phenyl-4-methoxy-5-[4-fluoro-(1-hydroxyimino)phentheyl]}phenylpiperazine]	0.0193 µM	–	> 1 µM	0.0645 µM
CCCS(=O)(=O)Nc1cc(N2CCN(CC)CC2)cc(-c2ccc(OC)cc2)c1Cl [Example 187, 1-Ethyl-4-[3-(4-methoxyphenyl)-4-chloro-5-propanesulfonyamino]phenylpiperazine]	0.0382 µM	–	0.0078 µM	0.00054 µM
CCN1CCN(c2cc(NS(=O)(=O)c3ccc(F)cc3)c(Cl)c(-c3ccccc3C)c2)CC1 [Example 137, 1-Ethyl-4-[3-(2-tolyl)-4-chloro-5-(4-fluorophenylsulfonylamino)]phenylpiperazine]	0.144 µM	–	0.312 µM	0.00064 µM
O=C(Cc1ccccc1)c1cc(N2CCNCC2)cc(-c2ccccc2)c1O [Example 118, 1-(3-Phenyl-4-hyroxy-5-phenylaectyl)phenylpiperazine]	0.468 µM	–	> 1 µM	0.149 µM
CCCCS(=O)(=O)Nc1cc(N2CCN(C)CC2)cc(-c2ccccc2Cl)c1Cl [Example 36, 1Methyl-4-[3-(2-chlorophenyl)-4-chloro-5-butanesulfonylamino]phenylpiperazine]	0.00404 µM	–	0.0253 µM	0.00126 µM
CCN1CCN(c2cc(COCC3CC3)c(Cl)c(-c3ccccc3C)c2)CC1 [Example 176, 1-Ethyl-4-[3-(2-tolyl)-4-chloro-5-cyclopropylmethoxymethyl]phenylpiperazine]	0.178 µM	–	> 1 µM	> 0.1 µM
CC[C@H](F)c1cc(N2CCN(CC)CC2)cc(-c2ccc(F)cc2C)c1Cl [Example 211, 1-Ethyl-4-{3-[2-(4-fluorotolyl)]-4-chloro-5-[1-(S)-fluoropropnyl]}phenylpiperazine]	0.00881 µM	–	1.02 µM	0.00414 µM
CCCCS(=O)(=O)Nc1cc(N2CCN(C)CC2)cc(-c2ccccc2C)c1Cl [Example 30]	0.00224 µM	–	0.0925 µM	0.00086 µM
CCN1CCN(c2cc(CCCOC)c(OC)c(-c3ccccc3)c2)CC1 [Example 68, 1-Ethyl-4-[3-phenyl-4-methoxy-5-(3-methoxypropyl)]phenylpiperazine]	0.032 µM	–	0.195 µM	0.0351 µM
C=CCOCc1cc(N2CCN(CC)CC2)cc(-c2ccccc2C)c1Cl [Example 175, 1-Ethyl-4-[3-(2-tolyl)-4-chloro-5-allyloxymethyl]phenylpiperazine]	> 0.1 µM	–	> 1 µM	0.0293 µM
CCN1CCN(c2cc(CCCO)cc(-c3ccccc3)c2OC)CC1 [Example 63, 1-Ethyl-4-[2-methoxy-3-phenyl-5-(3-hydroxypropyl)]phenylpiperazine]	0.703 µM	–	> 1 µM	> 1 µM
CCCCOC(CC)c1cc(N2CCN(CC)CC2)cc(-c2ccccc2)c1OC (stereo not drawn) [Example 81]	0.241 µM	–	> 1 µM	0.0383 µM
CCC(F)c1cc(N2CCN(CC)CC2)cc(-c2ccccc2CF)c1Cl (stereo not drawn) [Example 208, 1-Ethyl-4-[3-(2-fluoromethylphenyl)-4-chloro-5-(1-fluoropropyl)]phenylpiperazine]	0.0161 µM	–	2.38 µM	0.00346 µM
